Test results: publication PMC10355216, “The C-terminal tail of CSNAP attenuates the CSN complex” (Life Science Alliance, 2023)

Columns and labels:
recombinant CSN complex = experiment: Peptide array screen of C-CSNAP peptides with recombinant CSN (rCSN^WT); type: binding; details: for Average fold change, intensities as fold of C-CSNAP (A1): rCSN^WT on INTAVIS Celluspots array, anti-CSN3 and HRP secondary antibody, average of six replicates (three independent experiments in duplicates); for intensities as fold of C-CSNAP (A1), Experiment #1 left / intensities as fold of C-CSNAP (A1), Experiment #1 right / intensities as fold of C-CSNAP (A1), Experiment #2 left / intensities as fold of C-CSNAP (A1), Experiment #2 right / intensities as fold of C-CSNAP (A1), Experiment #3 left / intensities as fold of C-CSNAP (A1), Experiment #3 right: rCSN^WT peptide array; for intensities as fold of C-CSNAP (A1), Experiment #1 left: replicate: Experiment #1, left array; for intensities as fold of C-CSNAP (A1), Experiment #1 right: replicate: Experiment #1, right array; for intensities as fold of C-CSNAP (A1), Experiment #2 left: replicate: Experiment #2, left array; for intensities as fold of C-CSNAP (A1), Experiment #2 right: replicate: Experiment #2, right array; for intensities as fold of C-CSNAP (A1), Experiment #3 left: replicate: Experiment #3, left array; for intensities as fold of C-CSNAP (A1), Experiment #3 right: replicate: Experiment #3, right array; for Average fold change: peptide array with rCSN, average of 3 experiments, left and right (n = 6), fold of C-CSNAP (A1);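 as to all read-outs here: densitometric signal of CSN bound to each synthesized peptide spot, with an antibody-only array lacking CSN run to exclude non-specific binding, higher values meaning stronger binding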
Protocol: To generate an optimized C-CSNAP peptide, we used the peptide array methodology. The array was designed to screen for the optimal peptide length, sequence, and stability (Fig 3A). A recombinant CSN complex was expressed, purified, and screened for binding to the peptide array by using an anti-CSN3 antibody. To rule out non-specific binding of the probing antibody, a control experiment was carried out without the addition of the CSN complex (Fig 3A right panel).
C-CSNAP peptide and its derivatives were synthesized on a microarray. The array was blocked and incubated with or without the COP9 signalosome complex (CSN) and probed using an anti-CSN3 antibody and HRP-conjugated secondary antibody. To assess non-specific binding of the antibodies to the array, anti-CSN3 and anti-GAR–HRP were used without the addition of the CSN. Signal intensity of each spot was measured and normalized to the intensity of the spot of C-CSNAP (A1). Measured values for each spot were averaged from six arrays and plotted with SEM. […] (A) A representative image of the peptide array (left) and the background (right). (B) Elongation of the C-terminal 16 amino acids (green) with one residue at a time based on the full-length sequence. […] (F) Single D-amino acid substitution at various positions.
(§1) Intensity values are normalized to the intensity of the 16AA C-CSNAP peptide (A1) on each array from three independent experiments in duplicates, and averages from the six replicates are calculated with SEM.
(§2) Optimization of C-CSNAP sequence for enhanced binding to recombinant CSN^ΔCSNAP was screened by printing the modified sequences of CSNAP or C-CSNAP (Phe to Trp, Asp to Glu, Ala screen, D-amino acid screen, N-α-methylation, and Aib incorporation on INTAVIS Celluspots array [2 × 384spots]). The array was blocked with 5% skim milk in TBS-0.5% Tween 20 (TBS-T) for 4 h at room temperature, washed three times in TBS-T, and then incubated with 0.5 μM CSN^ΔCSNAP in 5% milk–TBS-T. Bound CSN^ΔCSNAP was visualized by incubating with anti-CSN3 (ab79698) antibody (1:10,000, overnight) and goat-anti-rabbit-HRP secondary antibody (1:10,000, 1 h).

CSN^ΔCSNAP complex = experiment: Peptide array screen of C-CSNAP peptides with rCSN^ΔCSNAP; type: binding; details: average of 5 experiments;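 also: Array-printed peptides incubated with 0.5 µM CSN^ΔCSNAP, bound complex detected by anti-CSN3 antibody plus HRP-linked secondary, spot intensity expressed relative to the parent reference peptide spot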
Protocol: Peptide array screen of modified C-CSNAP peptides. C-CSNAP peptide and its derivatives were printed on a microarray. The array was blocked and incubated with or without the CSN∆CSNAP complex and probed using an anti-CSN3 antibody and HRP-conjugated secondary antibody. To assess non-specific binding of the antibodies to the array, anti-CSN3 and anti-GAR-HRP were used without the addition of the COP9 signalosome complex (CSN). Signal intensity of each spot was measured and normalized to the intensity of the spot of C-CSNAP (A1). Measured values for each spot were averaged from six arrays and plotted with standard errors SEM.
as §1, §2

[1] = peptide array, rCSN^ΔCSNAP, left and right spots
[2] = peptide array with rCSN^ΔCSNAP, left and right (n = 10), fold of C-CSNAP (A1)

Substance | Average fold change, intensities as fold of C-CSNAP (A1) (recombinant CSN complex) | Average fold change (CSN^ΔCSNAP complex; [1]) | other results
DFFN-Aib-FEDLF-Aib-DDDI-Aib [Position H17, C-CSNAP with Aib incorporation (46,52,57)] | 0.3449 fold of C-CSNAP (A1) | – | intensities as fold of C-CSNAP (A1), Experiment #1 left (recombinant CSN complex): 0.3158 fold of C-CSNAP (A1); intensities as fold of C-CSNAP (A1), Experiment #1 right (recombinant CSN complex): 0.2689 fold of C-CSNAP (A1); intensities as fold of C-CSNAP (A1), Experiment #2 left (recombinant CSN complex): 0.1472 fold of C-CSNAP (A1); intensities as fold of C-CSNAP (A1), Experiment #2 right (recombinant CSN complex): 0.2740 fold of C-CSNAP (A1); intensities as fold of C-CSNAP (A1), Experiment #3 left (recombinant CSN complex): 0.2292 fold of C-CSNAP (A1); intensities as fold of C-CSNAP (A1), Experiment #3 right (recombinant CSN complex): 0.8343 fold of C-CSNAP (A1); Average fold change, intensities as fold of C-CSNAP (A1) (CSN^ΔCSNAP complex; [1]): 0.7091 fold
EFFNEFEELFEDEDIQ [D42,46,49,52,54E] | – | 0.9563 fold of C-CSNAP (A1) | Average fold change (recombinant CSN complex): 0.5967 fold
DFFNDFEELFEEEEIQ [D49,52,53,54,55E] | – | 1.1796 fold of C-CSNAP (A1) | Average fold change (recombinant CSN complex): 0.6658 fold
DFF-Aib-DFED-Aib-FDDDI-Aib-Q [Position H16, C-CSNAP with Aib incorporation (45,50,56)] | 0.4930 fold of C-CSNAP (A1) | – | intensities as fold of C-CSNAP (A1), Experiment #1 left (recombinant CSN complex): 0.3868 fold of C-CSNAP (A1); intensities as fold of C-CSNAP (A1), Experiment #1 right (recombinant CSN complex): 0.3074 fold of C-CSNAP (A1); intensities as fold of C-CSNAP (A1), Experiment #2 left (recombinant CSN complex): 0.3253 fold of C-CSNAP (A1); intensities as fold of C-CSNAP (A1), Experiment #2 right (recombinant CSN complex): 0.4113 fold of C-CSNAP (A1); intensities as fold of C-CSNAP (A1), Experiment #3 left (recombinant CSN complex): 0.4290 fold of C-CSNAP (A1); intensities as fold of C-CSNAP (A1), Experiment #3 right (recombinant CSN complex): 1.0982 fold of C-CSNAP (A1); Average fold change, intensities as fold of C-CSNAP (A1) (CSN^ΔCSNAP complex; [1]): 0.8483 fold
KPAVDEMFPEGAGPYVDLDEAGGSTGLLMDLAANEKAVHADFFNDFEDLFDDDDIQ [Position B17, CSNAP residues 2-57] | 1.0902 fold of C-CSNAP (A1) | – | Average fold change (CSN^ΔCSNAP complex; [2]): 1.3898 fold
DWFNDFEDLWDDDDIQ [Position C18, C-CSNAP, Phe to Trp substitution F43,51W] | 0.5534 fold of C-CSNAP (A1) | 1.2485 fold of C-CSNAP (A1) | –
DFFNDFEELFDDDDIQ [D 5, C-CSNAP, Asp to Glu substitution D49E] | 0.8086 fold of C-CSNAP (A1) | 0.9235 fold of C-CSNAP (A1) | –
DWFNDWEDLWDDDDIQ [Position C23, C-CSNAP, Phe to Trp substitution F43,47,51W] | 0.4941 fold of C-CSNAP (A1) | 0.6854 fold of C-CSNAP (A1) | –
GGSTGLLMDLAANEKAVHADFFNDFEDLFDDDDIQ [Position A20, CSNAP residues 23-57] | 0.8793 fold of C-CSNAP (A1) | – | Average fold change (CSN^ΔCSNAP complex; [2]): 1.1737 fold
DWWNDFEDLFDDDDIQ [Position C16, C-CSNAP, Phe to Trp substitution F43,44W] | 0.7427 fold of C-CSNAP (A1) | 1.3233 fold of C-CSNAP (A1) | –
DWFNDWEDLFDDDDIQ [Position C17, C-CSNAP, Phe to Trp substitution F43,47W] | 0.7959 fold of C-CSNAP (A1) | 1.5247 fold of C-CSNAP (A1) | –
DFFNEFEELFDDDEIQ [Position E16, C-CSNAP, Asp to Glu substitution D46,49,55E] | 0.6983 fold of C-CSNAP (A1) | 0.9545 fold of C-CSNAP (A1) | –
EFFNEFEELFDDEDIQ [D42,46,49,54E] | – | 1.0465 fold of C-CSNAP (A1) | Average fold change (recombinant CSN complex): 0.5426 fold
DFFNDFEELFDEDDIQ [Position D22, C-CSNAP, Asp to Glu substitution D49,53E] | 0.6642 fold of C-CSNAP (A1) | 1.3252 fold of C-CSNAP (A1) | –
EFFNDFEELFDDDEIQ [Position E12, C-CSNAP, Asp to Glu substitution D42,49,55E] | 0.6694 fold of C-CSNAP (A1) | 0.9711 fold of C-CSNAP (A1) | –
EFFNEFEDLFEDDDIQ [Position D12, C-CSNAP, Asp to Glu substitution D42,52E] | 0.7025 fold of C-CSNAP (A1) | 1.0147 fold of C-CSNAP (A1) | –
EFFNEFEDLFDDDEIQ [E 8, C-CSNAP, Asp to Glu substitution D42,46,55E] | 0.7616 fold of C-CSNAP (A1) | 0.9227 fold of C-CSNAP (A1) | –
DFFNDFEDAFDDDDIQ [C 4, C-CSNAP, Ala substitution L50A] | 0.5335 fold of C-CSNAP (A1) | – | Average fold change (CSN^ΔCSNAP complex; [2]): 0.8879 fold
DFFNEFEELFEDEDIQ [D46,49,52,54E] | – | 0.9254 fold of C-CSNAP (A1) | Average fold change (recombinant CSN complex): 0.5934 fold
DFFNEFEDLFDDEDIQ [Position D19, C-CSNAP, Asp to Glu substitution D46,54E] | 0.6165 fold of C-CSNAP (A1) | 1.1127 fold of C-CSNAP (A1) | –
EFFNDFEDLFDDEDIQ [Position D14, C-CSNAP, Asp to Glu substitution D42,54E] | 0.7060 fold of C-CSNAP (A1) | 1.0310 fold of C-CSNAP (A1) | –
DFFNEFEELFEEEEIQ [D46,49,52,53,54,55E] | – | 1.0133 fold of C-CSNAP (A1) | Average fold change (recombinant CSN complex): 0.5470 fold

Substance | Average fold change, intensities as fold of C-CSNAP (A1) (recombinant CSN complex) | Average fold change (CSN^ΔCSNAP complex; [1]) | other results
GLLMDLAANEKAVHADFFNDFEDLFDDDDIQ [Position A16, CSNAP residues 27-57] | 1.0167 fold of C-CSNAP (A1) | – | Average fold change (CSN^ΔCSNAP complex; [2]): 1.2168 fold
DFWNDFEDLFDDDDIQ [Position C13, C-CSNAP, Phe to Trp substitution F44W] | 0.8173 fold of C-CSNAP (A1) | 1.2883 fold of C-CSNAP (A1) | –
DFWNDWEDLWDDDDIQ [Position C22, C-CSNAP, Phe to Trp substitution F44,47,51W] | 0.6112 fold of C-CSNAP (A1) | 1.2126 fold of C-CSNAP (A1) | –
DFFNEFEDLFDEDDIQ [Position D18, C-CSNAP, Asp to Glu substitution D46,53E] | 0.5559 fold of C-CSNAP (A1) | 1.0532 fold of C-CSNAP (A1) | –
DFFNEFEDLFDDDDIQ [D 4, C-CSNAP, Asp to Glu substitution D46E] | 1.0255 fold of C-CSNAP (A1) | 1.0457 fold of C-CSNAP (A1) | –
DFFNDFEDLFDDDDAQ [Position C10, C-CSNAP, Ala substitution I56A] | 1.1392 fold of C-CSNAP (A1) | – | Average fold change (CSN^ΔCSNAP complex; [2]): 1.2151 fold
EFFNDFEDLFEEDEIQ [D42,52,53,55E] | – | 1.0660 fold of C-CSNAP (A1) | Average fold change (recombinant CSN complex): 0.6502 fold
DWFNDFEDLFDDDDIQ [Position C12, C-CSNAP, Phe to Trp substitution F43W] | 0.7756 fold of C-CSNAP (A1) | 1.2910 fold of C-CSNAP (A1) | –
DFFNDFEDLFDDDEIQ [D 9, C-CSNAP, Asp to Glu substitution D55E] | 1.0265 fold of C-CSNAP (A1) | 1.0696 fold of C-CSNAP (A1) | –
DFFNEFEDLFEDDDIQ [Position D17, C-CSNAP, Asp to Glu substitution D46,52E] | 0.7655 fold of C-CSNAP (A1) | 1.1441 fold of C-CSNAP (A1) | –
EFFNEFEELFEEDDIQ [D42,46,49,52,53E] | – | 1.2332 fold of C-CSNAP (A1) | Average fold change (recombinant CSN complex): 0.6954 fold
DFFNDFEELFEDEDIQ [Position E18, C-CSNAP, Asp to Glu substitution D49,52,54E] | 0.6310 fold of C-CSNAP (A1) | 0.9681 fold of C-CSNAP (A1) | –
DFFNDFEDLFDDEDIQ [D 8, C-CSNAP, Asp to Glu substitution D54E] | 0.9836 fold of C-CSNAP (A1) | 1.1238 fold of C-CSNAP (A1) | –
DFFNEFEELFEEDDIQ [D46,49,52,53E] | – | 0.8013 fold of C-CSNAP (A1) | Average fold change (recombinant CSN complex): 0.5885 fold
EFFNDFEDLFDDDEIQ [Position D15, C-CSNAP, Asp to Glu substitution D42,55E] | 0.7777 fold of C-CSNAP (A1) | 1.0098 fold of C-CSNAP (A1) | –
EAGGSTGLLMDLAANEKAVHADFFNDFEDLFDDDDIQ [Position A22, CSNAP residues 21-57] | 1.1428 fold of C-CSNAP (A1) | – | Average fold change (CSN^ΔCSNAP complex; [2]): 1.3163 fold
EFFNEFEELFEEEDIQ [D42,46,49,52,53, 54E] | – | 0.9285 fold of C-CSNAP (A1) | Average fold change (recombinant CSN complex): 0.5691 fold
KAVHADFFNDFEDLFDDDDIQ [A 6, CSNAP residues 37-57] | 1.1025 fold of C-CSNAP (A1) | – | Average fold change (CSN^ΔCSNAP complex; [2]): 0.9179 fold
DFFNEFEELFDEDDIQ [Position E14, C-CSNAP, Asp to Glu substitution D46,49,53E] | 0.6197 fold of C-CSNAP (A1) | 0.9920 fold of C-CSNAP (A1) | –
DFFNDFEDLFEDDDIQ [D 6, C-CSNAP, Asp to Glu substitution D52E] | 0.9809 fold of C-CSNAP (A1) | 1.1581 fold of C-CSNAP (A1) | –
DFFNDFEDLFEDEEIQ [D52,53,56E] | – | 1.1721 fold of C-CSNAP (A1) | Average fold change (recombinant CSN complex): 0.6027 fold
